Measurements taken from patent EP3906926A1, “PROLINE HYDROXYLASE INHIBITORS FOR USE IN THE SKELETAL MUSCLE REGENERATION” (Policlinico San Donato S.p.A.- Istituto di Ricovero e Cura …, priority 2020, dated 2021).
Each block holds one molecule with its values, some of them ahead of it.

Experiments:
C2C12 murine myoblasts [1] = assay: RealTime-Glo MT Cell Viability Assay; settings: at EC50 concentration (250 µM), 24 hours
Method: RealTime-Glo™ kits MT Cell Viability Assay (Promega) was used to investigate the effects of IOX2 and FG-4592 treatment on cell viability. Briefly, 5 x 10^3 C2C12 murine myoblasts were seeded in a 96 well plate and incubated for 24 hours (T0) with MT Cell Viability Substrate (1:1000 dilution) and NanoLuc® Enzyme (1:1000 dilution). Then, 50 µM IOX2 or 40 µM FG-4592 were added to the cell cultures and incubated for other 24 hours before luminescence analysis.
RealTime-Glo™ kits MT Cell Viability Assay (Promega) was used to investigate the effects of PLG treatment on cell viability. Briefly, 5 x 10^3 C2C12 murine myoblasts were seeded in a 96 well plate and incubated for 24 hours (T0) with MT Cell Viability Substrate (1:1000 dilution) and NanoLuc® Enzyme (1:1000 dilution). Then, each PLG inhibitor was added at its EC50 to the cell cultures and incubated for other 24 hours before luminescence analysis.

PHDs = assay: ODD-luciferase reporter assay (Dual-Glo) for PHDs inhibition; settings: C2C12 myoblasts transfected with ODD-luciferase-pcDNA3; 24 hours at 50, 100, 250, 500, 1000 µM, normoxic conditions; linear regression
Method: The IC50 was calculated using a Dual-Glo® Luciferase Assay System kit (Promega) that allows a high-throughput analysis of mammalian cells containing the Firefly (Luciferase-pcDNA3, ODD-Luciferase-pcDNA3) and Renilla (pRL-CMV) luciferase reporters. Briefly, 5 x 10^3 cells per well were seeded in a 96-well plate, and then transfected for 24 hours with a Luciferase-pcDNA3 or an ODD-Luciferase-pcDNA3 (80 ng), containing the firefly gene reporter. A co-transfection with pRL-CMV (8 ng), containing the renilla gene reporter, was performed as an internal control, according to the ViaFect Transfection Reagent® protocol (Promega). After transfection, cells were treated with 10, 25, 50, and 100 µM IOX2 or FG-4592 (R oxadustat) for 24 hours, and then an equal volume of Dual-Glo® Luciferase Reagent was added to each well, incubated at room temperature for 30 minutes, and then analyzed with a Varioskan™ LUX Multimode Microplate Reader (ThermoFisher Scientific). Then, an equal volume of Dual-Glo® Stop & Glo® Reagent was added to each well in order to quench the luminescence from the firefly reaction and to provide the substrate for the renilla luciferase. The mixture was incubated for 30 minutes before analysis. The IC50 values were calculated by linear regression.
To this purpose, the IC50 of both compounds was determined by transiently co-transfecting C2C12 myoblasts with the ODD-luciferase-pcDNA3 plasmid, containing the Oxygen Dependent Domain (ODD) of HIF-1α, and with the pRL-CMV plasmid, as the internal control (Figure 4, panel A). Then, transfected cells were treated for 24 hours with IOX2 or FG-4592 at different concentrations (10, 25, 50, and 100 µM) under normoxic conditions, and the emitted luminescence was collated to untreated controls.
The EC50 was calculated using a Dual-Glo® Luciferase Assay System kit (Promega) that allows a high-throughput analysis of mammalian cells containing the Firefly (Luciferase-pcDNA3, ODD-Luciferase-pcDNA3) and Renilla (pRL-CMV) luciferase reporters. Briefly, 5 x 10^3 cells per well were seeded in a 96-well plate, and then transfected for 24 hours with a Luciferase-pcDNA3 or an ODD-Luciferase-pcDNA3 (80 ng), containing the firefly gene reporter. A co-transfection with pRL-CMV (8 ng), containing the renilla gene reporter, was performed as an internal control, according to the ViaFect Transfection Reagent® protocol (Promega). […] Then, an equal volume of Dual-Glo® Stop & Glo® Reagent was added to each well in order to quench the luminescence from the firefly reaction and to provide the substrate for the renilla luciferase. The mixture was incubated for 30 minutes before analysis. The EC50 values were calculated by linear regression.
The EC50 of each compound was determined by transiently co-transfecting C2C12 myoblasts with the ODD-luciferase-pcDNA3 plasmid, containing the Oxygen Dependent Domain (ODD) of HIF-1α, and with the pRL-CMV plasmid, as the internal control (Figure 12, panel A).

HIF-1α = assay: Western blot of HIF-1α nuclear translocation; assay type: cell-based, murine; settings: PLG at EC50 (250 µM) for 24 hours, vs untreated control; Lamin A/C housekeeper
Method: (§1) For nuclei separation, 5 x 10^6 cells were collected after enzymatic digestion with trypsin (Merck), centrifuged at the maximum speed, resuspended in 400 µl of Buffer A (10 mM KCl, 0.1 mM EDTA, 1 mM DTT, 10 mM Hepes, pH 7.9), containing protease and phosphatase inhibitors cocktail (Merck), and incubated on ice for 20 minutes. Then, 10% NP40 was added to the cell suspension, mixed for 40 seconds, and centrifuged 40 seconds at the maximum speed. After centrifugation, the pellet was resuspended in 80 µl of Buffer C (0.4M NaCl, 1 mM EDTA, 1 mM DTT, 20 mM Hepes, pH 7.9), containing a protease and phosphatase inhibitors cocktail, and then mixed for 30 minutes at 4°C at the maximum speed. Finally, the nuclear suspension was centrifuged for 5 minutes at 4°C at the maximum speed, collected and transferred in a new tube. The total protein content was determined with the BCA Protein Assay Kit (Pierce), according to the manufacturer's instructions.
(§2) Proteins were denaturated by boiling for 10 minutes in sample buffer (0.6 g/100 mL Tris, 2 g/100 mL SDS, 10% glycerol, 1% 2-mercaptoethanol, pH 6.8) and loaded into 10% SDS-PAGE gel, then transferred onto a nitrocellulose membrane (Trans-blot, Bio-Rad Laboratories) by electroblotting. Nitrocellulose membranes were incubated with a blocking solution containing 5% (w/v) non-fat dry milk or 5% (w/v) BSA (Merck) in Tris-buffer saline with 0.1% Tween® 20 (TBS-T) for 1 hour. […] Membranes were washed three times for 10 minutes with TBS-T, and then incubated with the appropriate anti-mouse, anti-rabbit, or anti-goat HRP-conjugated secondary antibodies (Dako, Agilent Technologies), 1:2000 dilution, for 1 hour at room temperature. After three washes for 10 minutes with TBS-T, the immunoreactive bands were visualized using the enhanced chemiluminescence detection kit reagents (ECL Advance, GeHealthcare), according to the manufacturer's instructions.
as §1, with “For total proteins extraction, 7.5 x 10^4 cells were seeded and harvested at 7th days of skeletal muscle differentiation, as previously described. Cells were collected after enzymatic digestion with trypsin (Merck), lysed by sonication and centrifuged at 800 xg for 10 minutes. Supernatant was used to determine total protein content with the BCA Protein Assay Kit (Pierce), according to the manufacturer's instructions. For” for “For”, “(0.4 M” for “(0.4M”

C2C12 murine myoblasts [2] = assay: CellTox Cytotoxicity Assay; settings: at EC50 concentration (250 µM), 24 hours
Method: To assess PHDs inhibitors cytotoxicity, 5 x 10^3 C2C12 murine myoblasts were seeded in a 96-well plate.

MyoD = assay: Western blot of MyoD nuclear localization; assay type: cell-based, murine; settings: 250 µM PLG for 24 hours
Method: as §1, §2
as §1, with “For total proteins extraction, 7.5 x 10^4 cells were seeded and harvested at 7th days of skeletal muscle differentiation, as previously described. Cells were collected after enzymatic digestion with trypsin (Merck), lysed by sonication and centrifuged at 800 xg for 10 minutes. Supernatant was used to determine total protein content with the BCA Protein Assay Kit (Pierce), according to the manufacturer's instructions. For” for “For”, “(0.4 M” for “(0.4M”

Myogenin = assay: qPCR of Myogenin during differentiation; assay type: cell-based, murine; settings: day 3 of differentiation, 250 µM PLG pre-treated myoblasts
Method: (§3) Total RNA was isolated using ReliaPrep™ RNA Miniprep Systems (Promega), and reverse transcribed to cDNA using the iScript cDNA synthesis kit (BioRad), according to the Manufacturer's instructions. Real-Time Quantitative PCR was performed on 10 ng of cDNA template, 0.2 µM primers, and GoTaq® qPCR Master Mix (Promega) in 20 µl final volume using a StepOnePlus® Real-Time PCR System (Applied Biosystem). […] RPL13 was used as the housekeeping gene. The amplification program consisted in an initial denaturation at 95°C for 3 minutes, followed by 40 cycles of 5 seconds each at 95°C and 30 seconds at 57°C; WNT7a was amplified at 53°C. Relative quantification of target genes was performed in triplicate and calculated by the equation 2^-ΔΔCt.
as §3, with “ReliaPrepTM” for “ReliaPrep™”, “2-ΔΔCt.” for “2^-ΔΔCt.”

PHD2 = assay: qPCR of HIF-1α target gene PHD2; assay type: cell-based, murine; settings: PLG at EC50 (250 µM), 24 hours
Method: as §3
as §3, with “ReliaPrepTM” for “ReliaPrep™”, “2-ΔΔCt.” for “2^-ΔΔCt.”

MHC = assay: qPCR of MHC during differentiation; assay type: cell-based, murine; settings: day 7 of differentiation, 250 µM PLG pre-treated myoblasts
Method: as §3
as §3, with “ReliaPrepTM” for “ReliaPrep™”, “2-ΔΔCt.” for “2^-ΔΔCt.”

VEGF = assay: qPCR of HIF-1α target gene VEGF; assay type: cell-based, murine; settings: PLG at EC50 (250 µM), 24 hours
Method: as §3
as §3, with “ReliaPrepTM” for “ReliaPrep™”, “2-ΔΔCt.” for “2^-ΔΔCt.”

murine myoblasts C2C12 = assay: Skeletal muscle differentiation, MHC immunofluorescence (fusion and differentiation indexes); assay type: cell-based; settings: 250 µM PLG 24 hours in GM, then 7 days in DM without inhibitor; vs untreated controls
Method: (§4) The DM was changed every day for 7 days. Cells were analyzed at 24 hours post-treatment (PT), at 3rd and 7th days of skeletal muscle differentiation.
After differentiation for 7 days in DM, cells were washed with phosphate saline buffer (PBS) and fixed for 15 minutes in 4% (w/v) paraformaldehyde at room temperature. For permeabilization and blocking, cells were incubated for 1 hour in the presence of PBS 0.1% (v/v) Triton X-100 (TX-100, Merck) and 5% (w/v) FBS (Merck) at room temperature. […] After incubation, cells were washed three times in PBS and incubated for 1 hour at room temperature with an anti-mouse FITC-conjugated secondary antibody (Jackson ImmunoResearch), diluted 1:200. […] Myogenesis was assessed by measuring the myotube area and the number of myonuclei per myotube using a fluorescent microscope (Olympus TH4-200) equipped with an acquisition camera. To quantify both differentiation and fusion indexes, ten fields were chosen randomly and, for each field, a minimum of one hundred myosin-positive myotubes with more than two myonuclei were measured using the ImageJ v1.49o software. The area and the number of nuclei per myotube was the mean of ten measurements averaged from three different experiments.
as §4

EC50 (PHDs): 250 µM
SMILES: O=C(O)CCC(=O)NNC(=O)c1cc2ccccc2cn1 [PLG2]
decrease in the proliferation rate (C2C12 murine myoblasts [1]): 20%
HIF-1α nuclear translocation, protein increase (HIF-1α): 1.3 fold
Cell toxicity (C2C12 murine myoblasts [2]): not due to a toxic effect
increase of the nuclear localization of MyoD (MyoD): 1.2 fold
increase of Myogenin (Myogenin): 1.2 fold
increase of PHD2 (PHD2): no significant changes
enhancement of MHC (MHC): 1.3 fold
enhancement of VEGF (VEGF): 1.1 fold
fusion index (murine myoblasts C2C12): no significant changes
increase in the differentiation index (murine myoblasts C2C12): 1.15 fold

EC50 (PHDs): undetectable
SMILES: O=C(O)CCC(=O)NNC(=O)c1cc2c(cn1)[nH]c1ccccc12 [PLG6]

EC50 (PHDs): 250 µM
SMILES: COC(=O)CCC(=O)NNC(=O)c1cc2c(cn1)[nH]c1ccccc12 [PLG8]
decrease in the proliferation rate (C2C12 murine myoblasts [1]): 60%
HIF-1α nuclear translocation, protein increase (HIF-1α): 1.5 fold
Cell toxicity (C2C12 murine myoblasts [2]): not due to a toxic effect
increase of the nuclear localization of MyoD (MyoD): 1.4 fold
increase of Myogenin (Myogenin): 1.4 fold
increase of PHD2 (PHD2): 1.8 fold
enhancement of MHC (MHC): 1.5 fold
enhancement of VEGF (VEGF): 1.6 fold
fusion index (murine myoblasts C2C12): no significant changes
increase in the differentiation index (murine myoblasts C2C12): 1.15 fold

EC50 (PHDs): 250 µM
SMILES: COC(=O)CCC(=O)NNC(=O)c1cc2ccccc2cn1 [PLG11]
decrease in the proliferation rate (C2C12 murine myoblasts [1]): 17%
HIF-1α nuclear translocation, protein increase (HIF-1α): 1.5 fold
Cell toxicity (C2C12 murine myoblasts [2]): not due to a toxic effect
increase of the nuclear localization of MyoD (MyoD): 1.3 fold
increase of Myogenin (Myogenin): 1.4 fold
increase of PHD2 (PHD2): 1.3 fold
enhancement of MHC (MHC): 1.4 fold
enhancement of VEGF (VEGF): 1.2 fold
fusion index (murine myoblasts C2C12): no significant changes
increase in the differentiation index (murine myoblasts C2C12): 1.2 fold

EC50 (PHDs): undetectable
SMILES: CN(C)c1ccnc(C(=O)NNC(=O)CCC(=O)O)c1 [PLG19]

EC50 (PHDs): undetectable
SMILES: COC(=O)CCC(=O)NNC(=O)c1cc(N(C)C)ccn1 [PLG23]
